What is called Ki is the equilibrium dissociation constant of an inhibitor or competing ligand from its target. A low value points to higher affinity.

The results in this text go back to ChEMBL document CHEMBL1147836, “Benzo[b]thiophene-2-carboxamides and benzo[b]furan-2-carboxamides are potent antagonists of the human H3-receptor” (Bioorg Med Chem Lett, 2006).

A value given as a limit tells only on which side of the number the result lay.

The target of this assay is Histamine H3 receptor (Homo sapiens, UniProt Q9Y5N1). Description: Antagonist activity at human histamine H3 receptor by [35S]GTP-gamma-S assay. It is filed as functional. On the technique in general: GTPγS is a poorly hydrolysed GTP analogue; its binding reports G protein activation.
Histamine H3 receptor, sequence (Q9Y5N1 whole entry): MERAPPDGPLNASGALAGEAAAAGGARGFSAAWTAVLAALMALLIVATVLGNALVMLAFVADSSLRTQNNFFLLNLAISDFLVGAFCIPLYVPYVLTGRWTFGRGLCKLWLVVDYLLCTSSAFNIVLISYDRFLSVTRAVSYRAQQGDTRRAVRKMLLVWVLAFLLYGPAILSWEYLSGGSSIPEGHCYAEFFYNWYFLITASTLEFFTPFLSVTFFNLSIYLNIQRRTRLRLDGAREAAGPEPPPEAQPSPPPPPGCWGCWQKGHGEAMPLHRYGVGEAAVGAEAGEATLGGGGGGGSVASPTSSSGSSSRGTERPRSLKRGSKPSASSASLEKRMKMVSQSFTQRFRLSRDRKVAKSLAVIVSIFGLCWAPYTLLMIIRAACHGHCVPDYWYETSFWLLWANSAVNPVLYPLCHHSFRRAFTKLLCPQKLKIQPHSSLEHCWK
As to `O=C(c1cc2ccc(C(F)(F)F)cc2o1)N1CCC[C@H]1CN1CCCCC1`, the Ki turned out to be 22 nM.
Then `CCOc1cccc2cc(C(=O)N3CCC[C@H]3CN3CCCC3)oc12`, with 7 nM; and `N#Cc1ccc2oc(C(=O)N3CCC[C@H]3CN3CCCC3)cc2c1`, with 5 nM; and `O=C(c1cnc2ccccc2c1)N1CCC[C@H]1CN1CCCC1`, with more than 150 nM.
As for `O=C(c1cc2ccc(C(F)(F)F)cc2o1)N1CCC[C@H]1CN1CCCC1`, the figure is 15 nM.
Regarding `O=C(c1cc2cc(C(F)(F)F)ccc2o1)N1CCC[C@H]1CN1CCCCC1`, the affinity corresponds to a Ki of 7 nM.
As for `O=C(c1cc2cc(C(F)(F)F)ccc2o1)N1CCC[C@H]1CN1CCCC1`, the figure is 4 nM.
As for `O=C(c1cc2cc(Cl)ccc2o1)N1CCC[C@H]1CN1CCCC1`, the figure is 5 nM; as for `O=C(c1sc2ccccc2c1Cl)N1CCC[C@H]1CN1CCCC1`, 12 nM.
Then `CCN(CC)C[C@@H]1CCCN1C(=O)c1cc2cc(C(F)(F)F)ccc2o1`, with 14 nM; and `CCN(CC)C[C@@H]1CCCN1C(=O)c1cc2ccc(C(F)(F)F)cc2o1`, with 46 nM; and `O=C(c1cc2cc(OC(F)(F)F)ccc2o1)N1CCC[C@H]1CN1CCCC1`, with 11 nM.
`O=C(c1cc2ccccc2s1)N1CCC[C@H]1CN1CCCC1` came in with a Ki of 4 nM.
Then `O=C(c1cnc2ccccc2c1)N1CCC[C@H]1CN1CCCCC1`, with more than 150 nM.
